According to patent US12582617B2, “Methods for treating cancer” (RADIUS PHARMACEUTICALS, INC., priority 2015, dated 2026):
Where a name gives a salt, the structure may show the parent alone.

Assay: Phase 1 dose escalation study: safety, treatment related AEs
Assay type: in vivo
Description: The subjects were 40-75 years old with BMI of 18.0-30 kg/m^2. Subjects having evidence of clinically relevant pathology, increased risk of stroke or of history venous thromboembolic events, or use of concomitant medication less than 14 days prior to admission to clinical research center (paracetamol allowed up to 3 days prior) were excluded.
The subjects were treated with placebo or at least one dose p.o., q.d. after a light breakfast for 7 days at dose levels of 200 mg, 500 mg, 750 mg and 1000 mg, respectively.

CCNCCc1ccc(CN(CC)c2cc(OC)ccc2[C@@H]2CCc3cc(O)ccc3C2)cc1 [RAD1901, (6R)-6-(2-(N-(4-(2-(ethylamino)ethyl)benzyl)-N-ethylamino)-4-methoxyphenyl)-5,6,7,8-tetrahydronaphthalen-2-ol dihydrochloride]
Abdominal discomfort (treatment related AE) (200 mg, Gr1): 3 n(%)
Abdominal distension (treatment related AE) (200 mg, Gr1): 1 n(%)
Abdominal pain (treatment related AE) (200 mg, Gr1): 2 n(%)
Diarrhoea (treatment related AE) (200 mg, Gr1): 0 n(%)
Dizziness (treatment related AE) (200 mg, Gr1): 1 n(%)
Dyspepsia (treatment related AE) (200 mg, Gr1): 3 n(%)
Dysphagia (treatment related AE) (200 mg, Gr1): 0 n(%)
Flatulance (treatment related AE) (200 mg, Gr1): 2 n(%)
Headache (treatment related AE) (200 mg, Gr1): 3 n(%)
Hiccups (treatment related AE) (200 mg, Gr1): 1 n(%)
Hot flush (treatment related AE) (200 mg, Gr1): 2 n(%)
Myalgia (treatment related AE) (200 mg, Gr1): 2 n(%)
Nausea (treatment related AE) (200 mg, Gr1): 5 n(%)
Odynophagia (treatment related AE) (200 mg, Gr1): 2 n(%)
Oesophageal pain (treatment related AE) (200 mg, Gr1): 0 n(%)
Salivary hypersecretion (treatment related AE) (200 mg, Gr1): 2 n(%)
Sensation of a foreign body (treatment related AE) (200 mg, Gr1): 2 n(%)
Vomiting (treatment related AE) (200 mg, Gr1): 2 n(%)
Abdominal discomfort (treatment related AE) (200 mg, Gr2): 0 n(%)
Abdominal distension (treatment related AE) (200 mg, Gr2): 1 n(%)
Abdominal pain (treatment related AE) (200 mg, Gr2): 2 n(%)
Diarrhoea (treatment related AE) (200 mg, Gr2): 0 n(%)
Dizziness (treatment related AE) (200 mg, Gr2): 0 n(%)
Dyspepsia (treatment related AE) (200 mg, Gr2): 0 n(%)
Dysphagia (treatment related AE) (200 mg, Gr2): 0 n(%)
Flatulance (treatment related AE) (200 mg, Gr2): 0 n(%)
Headache (treatment related AE) (200 mg, Gr2): 0 n(%)
Hiccups (treatment related AE) (200 mg, Gr2): 0 n(%)
Hot flush (treatment related AE) (200 mg, Gr2): 0 n(%)
Myalgia (treatment related AE) (200 mg, Gr2): 1 n(%)
Nausea (treatment related AE) (200 mg, Gr2): 0 n(%)
Odynophagia (treatment related AE) (200 mg, Gr2): 0 n(%)
Oesophageal pain (treatment related AE) (200 mg, Gr2): 2 n(%)
Salivary hypersecretion (treatment related AE) (200 mg, Gr2): 0 n(%)
Sensation of a foreign body (treatment related AE) (200 mg, Gr2): 0 n(%)
Vomiting (treatment related AE) (200 mg, Gr2): 0 n(%)
Abdominal discomfort (treatment related AE) (200 mg, Gr3): 0 n(%)
Abdominal distension (treatment related AE) (200 mg, Gr3): 0 n(%)
Abdominal pain (treatment related AE) (200 mg, Gr3): 0 n(%)
Diarrhoea (treatment related AE) (200 mg, Gr3): 0 n(%)
Dizziness (treatment related AE) (200 mg, Gr3): 0 n(%)
Dyspepsia (treatment related AE) (200 mg, Gr3): 0 n(%)
Dysphagia (treatment related AE) (200 mg, Gr3): 0 n(%)
Flatulance (treatment related AE) (200 mg, Gr3): 0 n(%)
Headache (treatment related AE) (200 mg, Gr3): 0 n(%)
Hiccups (treatment related AE) (200 mg, Gr3): 0 n(%)
Hot flush (treatment related AE) (200 mg, Gr3): 0 n(%)
Myalgia (treatment related AE) (200 mg, Gr3): 0 n(%)
Nausea (treatment related AE) (200 mg, Gr3): 0 n(%)
Odynophagia (treatment related AE) (200 mg, Gr3): 0 n(%)
Oesophageal pain (treatment related AE) (200 mg, Gr3): 0 n(%)
Salivary hypersecretion (treatment related AE) (200 mg, Gr3): 0 n(%)
Sensation of a foreign body (treatment related AE) (200 mg, Gr3): 0 n(%)
Vomiting (treatment related AE) (200 mg, Gr3): 0 n(%)
Abdominal discomfort (treatment related AE) (500 mg, Gr1): 0 n(%)
Abdominal distension (treatment related AE) (500 mg, Gr1): 1 (7) n(%)
Abdominal pain (treatment related AE) (500 mg, Gr1): 3 (21) n(%)
Diarrhoea (treatment related AE) (500 mg, Gr1): 3 (21) n(%)
Dizziness (treatment related AE) (500 mg, Gr1): 2 (14) n(%)
Dyspepsia (treatment related AE) (500 mg, Gr1): 5 (36) n(%)
Dysphagia (treatment related AE) (500 mg, Gr1): 1 (7) n(%)
Flatulance (treatment related AE) (500 mg, Gr1): 2 (14) n(%)
Headache (treatment related AE) (500 mg, Gr1): 1 (7) n(%)
Hiccups (treatment related AE) (500 mg, Gr1): 4 (29) n(%)
Hot flush (treatment related AE) (500 mg, Gr1): 6 (43) n(%)
Myalgia (treatment related AE) (500 mg, Gr1): 0 n(%)
Nausea (treatment related AE) (500 mg, Gr1): 3 (21) n(%)
Odynophagia (treatment related AE) (500 mg, Gr1): 1 (7) n(%)
Oesophageal pain (treatment related AE) (500 mg, Gr1): 1 (7) n(%)
Salivary hypersecretion (treatment related AE) (500 mg, Gr1): 2 (14) n(%)
Sensation of a foreign body (treatment related AE) (500 mg, Gr1): 1 (7) n(%)
Vomiting (treatment related AE) (500 mg, Gr1): 1 (7) n(%)
Abdominal discomfort (treatment related AE) (500 mg, Gr2): 0 n(%)
Abdominal distension (treatment related AE) (500 mg, Gr2): 0 n(%)
Abdominal pain (treatment related AE) (500 mg, Gr2): 0 n(%)
Diarrhoea (treatment related AE) (500 mg, Gr2): 0 n(%)
Dizziness (treatment related AE) (500 mg, Gr2): 0 n(%)
Dyspepsia (treatment related AE) (500 mg, Gr2): 2 n(%)
Dysphagia (treatment related AE) (500 mg, Gr2): 2 n(%)
Flatulance (treatment related AE) (500 mg, Gr2): 0 n(%)
Headache (treatment related AE) (500 mg, Gr2): 1 n(%)
Hiccups (treatment related AE) (500 mg, Gr2): 0 n(%)
Hot flush (treatment related AE) (500 mg, Gr2): 0 n(%)
Myalgia (treatment related AE) (500 mg, Gr2): 1 n(%)
Nausea (treatment related AE) (500 mg, Gr2): 2 n(%)
Odynophagia (treatment related AE) (500 mg, Gr2): 1 n(%)
Oesophageal pain (treatment related AE) (500 mg, Gr2): 3 n(%)
Salivary hypersecretion (treatment related AE) (500 mg, Gr2): 0 n(%)
Sensation of a foreign body (treatment related AE) (500 mg, Gr2): 0 n(%)
Vomiting (treatment related AE) (500 mg, Gr2): 5 n(%)
Abdominal discomfort (treatment related AE) (500 mg, Gr3): 0 n(%)
Abdominal distension (treatment related AE) (500 mg, Gr3): 0 n(%)
Abdominal pain (treatment related AE) (500 mg, Gr3): 0 n(%)
Diarrhoea (treatment related AE) (500 mg, Gr3): 0 n(%)
Dizziness (treatment related AE) (500 mg, Gr3): 0 n(%)
Dyspepsia (treatment related AE) (500 mg, Gr3): 0 n(%)
Dysphagia (treatment related AE) (500 mg, Gr3): 0 n(%)
Flatulance (treatment related AE) (500 mg, Gr3): 0 n(%)
Headache (treatment related AE) (500 mg, Gr3): 0 n(%)
Hiccups (treatment related AE) (500 mg, Gr3): 0 n(%)
Hot flush (treatment related AE) (500 mg, Gr3): 0 n(%)
Myalgia (treatment related AE) (500 mg, Gr3): 0 n(%)
Nausea (treatment related AE) (500 mg, Gr3): 0 n(%)
Odynophagia (treatment related AE) (500 mg, Gr3): 0 n(%)
Oesophageal pain (treatment related AE) (500 mg, Gr3): 0 n(%)
Salivary hypersecretion (treatment related AE) (500 mg, Gr3): 0 n(%)
Sensation of a foreign body (treatment related AE) (500 mg, Gr3): 0 n(%)
Vomiting (treatment related AE) (500 mg, Gr3): 1 n(%)
Abdominal discomfort (treatment related AE) (750 mg, Gr1): 1 (13) n(%)
Abdominal distension (treatment related AE) (750 mg, Gr1): 1 (13) n(%)
Abdominal pain (treatment related AE) (750 mg, Gr1): 1 (13) n(%)
Diarrhoea (treatment related AE) (750 mg, Gr1): 0 n(%)
Dizziness (treatment related AE) (750 mg, Gr1): 1 (13) n(%)
Dyspepsia (treatment related AE) (750 mg, Gr1): 4 (50) n(%)
Dysphagia (treatment related AE) (750 mg, Gr1): 3 (38) n(%)
Flatulance (treatment related AE) (750 mg, Gr1): 1 (13) n(%)
Headache (treatment related AE) (750 mg, Gr1): 3 (38) n(%)
Hiccups (treatment related AE) (750 mg, Gr1): 2 (25) n(%)
Hot flush (treatment related AE) (750 mg, Gr1): 2 (25) n(%)
Myalgia (treatment related AE) (750 mg, Gr1): 1 (13) n(%)
Nausea (treatment related AE) (750 mg, Gr1): 2 (25) n(%)
Odynophagia (treatment related AE) (750 mg, Gr1): 0 n(%)
Oesophageal pain (treatment related AE) (750 mg, Gr1): 1 (13) n(%)
Salivary hypersecretion (treatment related AE) (750 mg, Gr1): 2 (25) n(%)
Sensation of a foreign body (treatment related AE) (750 mg, Gr1): 0 n(%)
Vomiting (treatment related AE) (750 mg, Gr1): 0 n(%)
Abdominal discomfort (treatment related AE) (750 mg, Gr2): 1 n(%)
Abdominal distension (treatment related AE) (750 mg, Gr2): 0 n(%)
Abdominal pain (treatment related AE) (750 mg, Gr2): 0 n(%)
Diarrhoea (treatment related AE) (750 mg, Gr2): 0 n(%)
Dizziness (treatment related AE) (750 mg, Gr2): 0 n(%)
Dyspepsia (treatment related AE) (750 mg, Gr2): 0 n(%)
Dysphagia (treatment related AE) (750 mg, Gr2): 1 n(%)
Flatulance (treatment related AE) (750 mg, Gr2): 0 n(%)
Headache (treatment related AE) (750 mg, Gr2): 0 n(%)
Hiccups (treatment related AE) (750 mg, Gr2): 0 n(%)
Hot flush (treatment related AE) (750 mg, Gr2): 0 n(%)
Myalgia (treatment related AE) (750 mg, Gr2): 0 n(%)
Nausea (treatment related AE) (750 mg, Gr2): 1 n(%)
Odynophagia (treatment related AE) (750 mg, Gr2): 0 n(%)
Oesophageal pain (treatment related AE) (750 mg, Gr2): 0 n(%)
Salivary hypersecretion (treatment related AE) (750 mg, Gr2): 0 n(%)
Sensation of a foreign body (treatment related AE) (750 mg, Gr2): 0 n(%)
Vomiting (treatment related AE) (750 mg, Gr2): 2 n(%)
Abdominal discomfort (treatment related AE) (750 mg, Gr3): 0 n(%)
